Measurements as given in article PMC9458453, “What is a supercoiling-sensitive gene? Insights from topoisomerase I inhibition in the Gram-negative bacterium Dickeya dadantii” (Nucleic Acids Research, 2022).

Tests used:
topoisomerase I (topoI) [1] = molecular target: T1, topoisomerase I (topoI) (Dickeya dadantii, UniProt E0SBX6); experiment: pUC18 plasmid relaxation assay on agarose gel with purified topoI; format: biochemical
T1 construct: gene topA; N-terminally 6xhis-tagged topoisomerase I

topoisomerase I (topoI) [2] = molecular target: T2, topoisomerase I (topoI) (Escherichia coli, UniProt P06612); experiment: plasmid relaxation assay on agarose gel with purified commercial topoI; format: biochemical
T2 construct: gene topA; commercial topoI (NEB)
T2 sequence (P06612 whole entry): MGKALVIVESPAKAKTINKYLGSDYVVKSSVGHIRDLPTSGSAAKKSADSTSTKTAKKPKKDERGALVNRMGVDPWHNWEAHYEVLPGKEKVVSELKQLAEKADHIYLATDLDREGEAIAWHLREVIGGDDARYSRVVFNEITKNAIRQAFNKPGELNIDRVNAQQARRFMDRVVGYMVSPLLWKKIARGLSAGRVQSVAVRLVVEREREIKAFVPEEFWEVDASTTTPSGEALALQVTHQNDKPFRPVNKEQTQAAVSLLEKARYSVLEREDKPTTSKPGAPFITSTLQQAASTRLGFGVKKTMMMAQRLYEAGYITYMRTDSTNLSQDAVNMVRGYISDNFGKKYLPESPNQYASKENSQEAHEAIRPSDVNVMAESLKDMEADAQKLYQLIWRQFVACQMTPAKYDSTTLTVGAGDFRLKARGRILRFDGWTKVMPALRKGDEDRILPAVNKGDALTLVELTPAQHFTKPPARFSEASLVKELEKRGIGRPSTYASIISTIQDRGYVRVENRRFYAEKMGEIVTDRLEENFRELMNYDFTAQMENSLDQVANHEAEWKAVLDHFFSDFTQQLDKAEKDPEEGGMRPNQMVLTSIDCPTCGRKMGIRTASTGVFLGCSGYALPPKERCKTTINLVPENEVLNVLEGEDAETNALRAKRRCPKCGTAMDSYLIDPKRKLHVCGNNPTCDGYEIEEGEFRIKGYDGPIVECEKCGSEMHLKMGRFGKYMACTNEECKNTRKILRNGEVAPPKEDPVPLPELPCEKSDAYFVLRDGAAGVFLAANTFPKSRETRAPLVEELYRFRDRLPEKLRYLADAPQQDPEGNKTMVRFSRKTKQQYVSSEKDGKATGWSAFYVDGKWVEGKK

T1 sequence (E0SBX6 entry or part of it): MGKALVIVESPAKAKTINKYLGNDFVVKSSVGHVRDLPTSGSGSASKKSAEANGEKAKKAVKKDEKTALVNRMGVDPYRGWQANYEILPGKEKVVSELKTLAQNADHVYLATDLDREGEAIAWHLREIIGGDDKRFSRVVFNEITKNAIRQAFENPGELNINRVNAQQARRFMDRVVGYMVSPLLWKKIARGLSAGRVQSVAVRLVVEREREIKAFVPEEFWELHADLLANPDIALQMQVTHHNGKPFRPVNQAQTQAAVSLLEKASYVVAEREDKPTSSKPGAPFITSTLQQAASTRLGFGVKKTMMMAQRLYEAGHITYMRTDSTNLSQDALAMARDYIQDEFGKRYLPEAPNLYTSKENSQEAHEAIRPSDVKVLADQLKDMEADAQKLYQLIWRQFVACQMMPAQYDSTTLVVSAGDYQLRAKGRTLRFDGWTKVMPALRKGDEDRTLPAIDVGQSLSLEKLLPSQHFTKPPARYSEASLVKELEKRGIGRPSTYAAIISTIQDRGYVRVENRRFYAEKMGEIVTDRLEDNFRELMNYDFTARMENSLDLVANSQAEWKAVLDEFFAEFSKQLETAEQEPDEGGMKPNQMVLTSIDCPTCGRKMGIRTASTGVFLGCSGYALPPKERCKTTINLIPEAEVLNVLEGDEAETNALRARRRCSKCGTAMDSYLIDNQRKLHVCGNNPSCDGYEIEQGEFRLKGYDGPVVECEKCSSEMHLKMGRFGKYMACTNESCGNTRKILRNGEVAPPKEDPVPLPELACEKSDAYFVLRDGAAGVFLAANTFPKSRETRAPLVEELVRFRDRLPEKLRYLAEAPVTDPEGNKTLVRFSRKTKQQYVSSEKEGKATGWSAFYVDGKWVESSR

## CNCCc1cc2c(c3c1ccc1cc4c(cc13)OCO4)OCO2 [SCN, seconeolitsine]
Topoisomerase I (topoI) [1]
  IC50: 4 µM
Topoisomerase I (topoI) [2]
  IC50: ~7 µM
